Source: patent US11261174B2, “Pyrazole O-linked carbamoyl cyclohexyl acids as LPA antagonists” (BRISTOL-MYERS SQUIBB COMPANY, priority 2017, dated 2022)

target: LPA1 (Homo sapiens, UniProt Q92633); experiment: LPA1 functional antagonist assay (LPA-induced calcium flux); type: cell-based; set-up: expressed in transfected cells; host or cells: Chinese hamster ovary (CHO) cells; conditions: CHO cells overexpressing human LPA1; calcium flux induced by 10 nM LPA; read-out: hLPA1 IC50
Description: The effectiveness of compounds of the present invention as LPA1 inhibitors can be determined in an LPA1 functional antagonist assay as follows:
Chinese hamster ovary cells overexpressing human LPA1 were plated overnight (15,000 cells/well) in poly-D-lysine coated 384-well microplates (Greiner bio-one, Cat #781946) in DMEM/F12 medium (Gibco, Cat #11039). Following overnight culture, cells were loaded with calcium indicator dye (AAT Bioquest Inc, Cat #34601) for 30 minutes at 37° C. The cells were then equilibrated to room temperature for 30 minutes before the assay. Test compounds solubilized in DMSO were transferred to 384 well non-binding surface plates (Corning, Cat #3575) using the Labcyte Echo acoustic dispense and diluted with assay buffer [1×HBSS with calcium/magnesium (Gibco Cat #14025-092), 20 mM HEPES (Gibco Cat #15630-080) and 0.1% fatty acid free BSA (Sigma Cat # A9205)] to a final concentration of 0.5% DMSO. Diluted compounds were added to the cells by FDSS6000 (Hamamatsu) at final concentrations ranging from 0.08 nM to 5 μM. and were then incubated for 20 min at room temperature at which time LPA (Avanti Polar Lipids Cat #857130C) was added at final concentrations of 10 nM to stimulate the cells. […] IC50 values were determined by fitting data to a 4-parameter logistic equation (GraphPad Prism, San Diego Calif.).

Chain of LPA1 (Q92633 whole entry): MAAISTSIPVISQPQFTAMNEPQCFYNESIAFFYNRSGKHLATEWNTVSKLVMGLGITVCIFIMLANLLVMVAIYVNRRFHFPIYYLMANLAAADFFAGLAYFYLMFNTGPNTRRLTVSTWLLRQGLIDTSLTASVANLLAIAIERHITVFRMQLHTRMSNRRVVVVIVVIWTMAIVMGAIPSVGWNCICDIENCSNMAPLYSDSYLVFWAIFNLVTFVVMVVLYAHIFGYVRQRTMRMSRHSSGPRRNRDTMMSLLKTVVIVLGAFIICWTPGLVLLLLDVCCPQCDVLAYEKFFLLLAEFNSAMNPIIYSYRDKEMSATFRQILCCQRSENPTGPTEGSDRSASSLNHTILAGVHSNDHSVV

SMILES | IC50 [nM]
CCCCN(C)C(=O)OCc1c(-c2cnc(O[C@H]3CCC[C@H](C(=O)O)C3)c(C)n2)cnn1C (racemic) [Example 7] | 40
Cc1nc(-c2cnn(C)c2COC(=O)N(C)Cc2ccccc2)ccc1O[C@@H]1CCC[C@@H](C(=O)O)C1 (racemic) [Example 27] | 24
CCCC(C)(C)N(C)C(=O)OCc1c(-c2ccc(O[C@@H]3CCC[C@@H](C(=O)O)C3)c(C)n2)cnn1C (racemic) [Example 28] | 140
Cc1nc(-c2cnn(C)c2COC(=O)N(C)C2CCCC2)ccc1O[C@H]1CCC[C@H](C(=O)O)C1 [Example 5] | 30
Cc1nc(-c2cnn(C)c2COC(=O)N(C)[C@H](C)C2CC2)cnc1O[C@H]1CCC[C@H](C(=O)O)C1 [Example 6] | 94
Cc1nc(-c2cnn(C)c2COC(=O)N(C)Cc2ccccc2)cnc1O[C@H]1CCC[C@H](C(=O)O)C1 [Example 8] | 34
Cc1nc(-c2cnn(C)c2COC(=O)N(C)C2CCCC2)cnc1O[C@H]1CCC[C@H](C(=O)O)C1 [Example 9] | 34
Cc1nc(-c2cnn(C)c2COC(=O)N(C)CC2CCCC2)ccc1O[C@H]1CCC[C@H](C(=O)O)C1 [Example 13] | 244
Cc1nc(-c2cnn(C)c2COC(=O)N(C)Cc2cccc(Cl)c2)ccc1O[C@H]1CCC[C@H](C(=O)O)C1 [Example 14] | 1120
Cc1nc(-c2cnn(C)c2COC(=O)N(C)Cc2ccccc2)ccc1O[C@H]1CCC[C@H](C(=O)O)C1 [Example 15] | 10
Cc1nc(-c2cnn(C)c2COC(=O)N(C)Cc2cccc(F)c2)ccc1O[C@H]1CCC[C@H](C(=O)O)C1 [Example 16] | 8
Cc1nc(-c2cnn(C)c2COC(=O)N(C)C2(C3CC3)CC2)ccc1O[C@H]1CCC[C@H](C(=O)O)C1 [Example 17] | 43
CCCC1(N(C)C(=O)OCc2c(-c3ccc(O[C@H]4CCC[C@H](C(=O)O)C4)c(C)n3)cnn2C)CC1 [Example 18] | 55
Cc1nc(-c2cnn(C)c2COC(=O)N(C)CCC2CC2)ccc1O[C@H]1CCC[C@H](C(=O)O)C1 [Example 19] | 9
CCCCN(C)C(=O)OCc1c(-c2ccc(O[C@H]3CCC[C@H](C(=O)O)C3)c(C)n2)cnn1C [Example 20] | 16
Cc1nc(-c2cnn(C)c2COC(=O)N(C)CC2CCC2)ccc1O[C@H]1CCC[C@H](C(=O)O)C1 [Example 21] | 10
Cc1nc(-c2cnn(C)c2COC(=O)N(C)C(C2CC2)C2CC2)ccc1O[C@H]1CCC[C@H](C(=O)O)C1 [Example 23] | 28
Cc1nc(-c2cnn(C)c2COC(=O)N(C)CC2CC2)ccc1O[C@H]1CCC[C@H](C(=O)O)C1 [Example 25] | 20
Cc1cc(-c2cnn(C)c2COC(=O)N(C)C2CCC2)ccc1O[C@H]1CCC[C@H](C(=O)O)C1 [Example 45] | 19
Cc1cc(-c2cnn(C)c2COC(=O)N(C)C(C)C2CCC2)ccc1O[C@H]1CCC[C@H](C(=O)O)C1 (stereo partly shown) [Example 46] | 27
Cc1cc(-c2cnn(C)c2COC(=O)N(C)C2CCCC2)ccc1O[C@H]1CCC[C@H](C(=O)O)C1 [Example 48] | 8
CN(C(=O)OCc1c(-c2cnc(O[C@H]3CCC[C@H](C(=O)O)C3)cn2)cnn1C)C1CCCC1 [Example 56] | 18

Second part, the compound after the results:

IC50 [nM] | SMILES
51 | CCCC(C)(C)N(C)C(=O)OCc1c(-c2ccc(O[C@@H]3CCC[C@@H](C(=O)O)C3)cn2)cnn1C (racemic) [Example 31]
54 | CN(CCC1CC1)C(=O)OCc1c(-c2ccc(O[C@@H]3CCC[C@@H](C(=O)O)C3)cn2)cnn1C (racemic) [Example 32]
33 | CC(C)CCN(C)C(=O)OCc1c(-c2ccc(O[C@@H]3CCC[C@@H](C(=O)O)C3)cn2)cnn1C (racemic) [Example 34]
1760 | CN(CC1CC1)C(=O)OCc1c(-c2ccc(O[C@@H]3CCC[C@@H](C(=O)O)C3)cc2)cnn1C (racemic) [Example 41]
67 | C[C@H](C1CC1)N(C)C(=O)OCc1c(-c2ccc(O[C@H]3CCC[C@H](C(=O)O)C3)cn2)cnn1C [Example 1, (1S,3S)-3-((6-(5-(((((R)-1-cyclopropylethyl)(methyl)carbamoyl)oxy)methyl)-1-methyl-1H-pyrazol-4-yl)pyridin-3-yl)oxy)cyclohexane-1-carboxylic Acid]
136 | CC(C1CCC1)N(C)C(=O)OCc1c(-c2ccc(O[C@H]3CCCC(C(=O)O)C3)cn2)cnn1C (stereo partly shown) [Example 2]
48 | CN(CC1CCC1)C(=O)OCc1c(-c2ccc(O[C@H]3CCC[C@H](C(=O)O)C3)cn2)cnn1C [Example 3]
165 | CN(CC1CC1)C(=O)OCc1c(-c2ccc(O[C@H]3CCC[C@H](C(=O)O)C3)cn2)cnn1C [Example 4]
73 | CC[C@H](C)CN(C)C(=O)OCc1c(-c2ccc(O[C@H]3CCC[C@H](C(=O)O)C3)c(C)n2)cnn1C [Example 11]
54 | CCCN(C)C(=O)OCc1c(-c2ccc(O[C@H]3CCC[C@H](C(=O)O)C3)c(C)n2)cnn1C [Example 12]
5 | Cc1nc(-c2cnn(C)c2COC(=O)N(C)CCC(C)C)ccc1O[C@H]1CCC[C@H](C(=O)O)C1 [Example 24]
30 | CCC(CC)N(C)C(=O)OCc1c(-c2ccc(O[C@H]3CCC[C@H](C(=O)O)C3)cn2)cnn1C [Example 26]
5 | CCCCN(C)C(=O)OCc1c(-c2ccc(O[C@H]3CCC[C@H](C(=O)O)C3)c(C)c2)cnn1C [Example 30]
23 | CC(C)CCN(C)C(=O)OCc1c(-c2ccc(O[C@H]3CCC[C@H](C(=O)O)C3)cn2)cnn1C [Example 33]
9 | CCCCN(C)C(=O)OCc1c(-c2ccc(O[C@H]3CCC[C@H](C(=O)O)C3)cn2)cnn1C [Example 35]
376 | CN(Cc1ccccc1)C(=O)OCc1c(-c2ccc(O[C@@H]3CCC[C@@H](C(=O)O)C3)cc2)cnn1C [Example 36]
2040 | CC(C)CCN(C)C(=O)OCc1c(-c2ccc(O[C@@H]3CCC[C@@H](C(=O)O)C3)cc2)cnn1C [Example 37]
6 | CC(C)CCN(C)C(=O)OCc1c(-c2ccc(O[C@H]3CCC[C@H](C(=O)O)C3)cc2)cnn1C [Example 38]
415 | CN(C(=O)OCc1c(-c2ccc(O[C@@H]3CCC[C@@H](C(=O)O)C3)cc2)cnn1C)C1CCC1 [Example 42]
27 | Cc1cc(-c2cnn(C)c2COC(=O)N(C)C(C)C2CC2)ccc1O[C@H]1CCC[C@H](C(=O)O)C1 (stereo partly shown) [Example 47]
286 | CC(C)CN(C)C(=O)OCc1c(-c2ccc(O[C@H]3CCC[C@H](C(=O)O)C3)cc2)cnn1C [Example 49]
70 | CN(C(=O)OCc1c(-c2ccc(O[C@H]3CCC[C@H](C(=O)O)C3)cc2)cnn1C)C1CCC1 [Example 50]
399 | CN(CC1CC1)C(=O)OCc1c(-c2ccc(O[C@H]3CCC[C@H](C(=O)O)C3)cc2)cnn1C [Example 51]
53 | CN(CC1CCC1)C(=O)OCc1c(-c2ccc(O[C@H]3CCC[C@H](C(=O)O)C3)cc2)cnn1C [Example 52]
86 | CCC(C)N(C)C(=O)OCc1c(-c2ccc(O[C@H]3CCC[C@H](C(=O)O)C3)cc2)cnn1C (stereo partly shown) [Example 53]
87 | CCCC(C)N(C)C(=O)OCc1c(-c2ccc(O[C@H]3CCC[C@H](C(=O)O)C3)cc2)cnn1C (stereo partly shown) [Example 54]
22 | CC(C1CCC1)N(C)C(=O)OCc1c(-c2ccc(O[C@H]3CCC[C@H](C(=O)O)C3)cc2)cnn1C (stereo partly shown) [Example 55]
